Literature values in publication PMC3018413, “Uptake and Metabolism of the Novel Peptide Angiotensin-(1-12) by Neonatal Cardiac Myocytes” (PLoS ONE, 2011).

Legend:
[1] = tested on: Ang II formation from Ang-(1–12); details: ref Prosser et al. [29] as printed
Description: In the controlled environment of a cell culture system, neonatal cardiac myocytes of SHR and WKY metabolized ^125I-Ang-(1–12) into Ang I, leading to sequential production of Ang II, Ang-(1–7), and other smaller angiotensin fragments. […] This new observation is in ...

[2] = tested on: human renal tubular epithelial cells

| Molecule | inhibition of Ang II formation from Ang-(1–12) [1] | bound angiotensinogen that could be displaced [2] |
| --- | --- | --- |
| CC(C)C[C@H](NC(=O)[C@@H](NC(=O)N[C@@H](Cc1ccccc1)C(=O)O)[C@@H]1CCN=C(N)N1)C(=O)N[C@H](C=O)Cc1ccccc1 [chymostatin] | completely inhibited | – |
| angiotensinogen: angiotensinogen protein bound to human renal tubular epithelial cells, cited study (protein, UniProt P01019 25-476, looked up) Angiotensinogen: DRVYIHPFHLVIHNESTCEQLAKANAGKPKDPTFIPAPIQAKTSPVDEKALQDQLVLVAAKLDTEDKLRAAMVGMLANFLGFRIYGMHSELWGVVHGATVLSPTAVFGTLASLYLGALDHTADRLQAILGVPWKDKNCTSRLDAHKVLSALQAVQGLLVAQGRADSQAQLLLSTVVGVFTAPGLHLKQPFVQGLALYTPVVLPRSLDFTELDVAAEKIDRFMQAVTGWKTGCSLMGASVDSTLAFNTYVHFQGKMKGFSLLAEPQEFWVDNSTSVSVPMLSGMGTFQHWSDIQDNFSVTQVPFTESACLLLIQPHYASDLDKVEGLTFQQNSLNWMKKLSPRTIHLTMPQLVLQGSYDLQDLLAQAELPAILHTELNLQKLSNDRIRVGEVLNSIFFELEADEREPTESTQQLNKPEVLEVTLNRPFLFAVYDQSATALHFLGRVANPLSTA | – | ≤ 50% |
